# According to article PMC6791383, “A side-by-side evaluation of [^18F]FDOPA enantiomers for non-invasive detection of neuroendocrine tumors by positron emission tomography” (Oncotarget, 2019):
# Experiments:
# COLO-320 xenografts [1] = assay: In vivo PET-CT quantitative image analysis, COLO-320 xenografts; conditions: COLO-320 tumors, NSG mice, 9MBq
# Method: (§1) All animal studies were carried out according to regulations set forth and approved by the Johns Hopkins Animal Care and Use Committee. Female, 6- to 8-weeks-old immunodeficient NOD scid gamma (NSG) mice were subcutaneously inoculated with 1 million PC12, STC-1 or COLO-320 cells in […] of Hank’s balanced salt solution in the top flank. Tumors of 4–6 mm in diameter (typically 14-21 days post inoculation) were utilized for in vivo imaging or ex vivo biodistribution studies.
# (§2) Mice (n=4) were injected with 9MBq (250μCi) of each tracer in 150μL of saline intravenously and anesthetized with 3% isoflurane prior to being placed on the scanner bed. Mice were kept warm with an external light source and maintained at 1% isoflurane levels while being scanned. PET imaging (2 beds; 10 min per bed) was carried out using an ARGUS small-animal PET/CT scanner (Sedecal). A CT scan (512 projections) was obtained at the end of each PET scan for anatomical co-registration. For in vivo blocking experiments, mice were injected with 10meq of LAT1 inhibitor. PET data were reconstructed using the 2-dimensional ordered subsets-expectation maximization algorithm (2D-OSEM) and corrected for dead time and radioactive decay. Data visualization and image generation were carried out using Amira 2019.1 (ThermoFisher Scientific).
# (§3) Quantitative in vivo image analysis was carried out in AMIDE (SourceForge) 1.0.4 utilizing ellipsoid region-of-interest volume integrations with 3 slices entailing a depth of 1.9 mm per slice. The %ID per cc values were calculated based on a calibration factor obtained from a phantom (known radioactive quantity in a known volume).
# STC-1 cells = assay: In vitro uptake (binding) assay in STC-1 cells; type: cell-based; conditions: 30mins incubation, 1 million cells, % incubated dose/million cells
# Method: Both [^18F]FDOPA enantiomers were initially assessed in vitro in all NET cells.
# In vitro binding assays were carried out, in triplicate, in PBS with 0.5% FBS, for 30mins at ambient temperatures using 1 million cells and repeated three times. Blocking studies were carried out using 10meq of the commercial LAT1 inhibitor, 2-Aminobicyclo[2.2.1]heptane-2-carboxylic acid (TOCRIS, MN, USA). Following incubation with each tracer, cells were rinsed three times with cold PBS prior to being counted on an automated gamma counter (1282 Compugamma CS; Pharmacia/LKBNuclear, Inc.) along with external standards. Obtained counts were converted into percentage incubated dose per million cells based on normalization to external standards. Experiments were performed in triplicate and repeated three times.
# COLO-320 xenografts [2] = assay: Ex vivo biodistribution in NSG mice bearing COLO-320 xenografts; conditions: for Biodistribution, Bladder / Biodistribution, Blood / Biodistribution, Bone / Biodistribution, Brain / Biodistribution, Fat / Biodistribution, Heart / Biodistribution, Kidneys / Biodistribution, Liver / Biodistribution, Lungs / Biodistribution, Muscle / Biodistribution, Pancreas / Biodistribution, Small Intestines / Biodistribution, Spleen / Biodistribution, Stomach / Biodistribution, Tumor: COLO-320 xenograft NSG mice, 1.5MBq i.v.
# Method: as §1
# (§4) Mice (n=5 per group) were intravenously injected with 1.5MBq (40μCi) of each tracer in 150μL of saline. Ex vivo biodistribution studies were performed at 30min and 120min time points after tracer administration. Blood, liver, spleen, heart, lungs, kidneys, small intestines, stomach, muscle, fat, bone, bladder, brain and tumor tissues were retrieved, weighed, and counted in an automated gamma counter (1282 Compugamma CS). Percentage injected dose per gram (%ID/g) values were calculated based on normalization to external standards, counted in triplicate, and accounted for signal-decay correction.
# PC12 xenografts [3] = assay: In vivo PET-CT quantitative image analysis, PC12 xenografts; conditions: PC12 tumors, NSG mice, 9MBq
# Method: as §1, §2, §3
# PC12 xenografts [4] = assay: Ex vivo biodistribution in NSG mice bearing PC12 xenografts; conditions: for Biodistribution, Bladder / Biodistribution, Blood / Biodistribution, Bone / Biodistribution, Brain / Biodistribution, Fat / Biodistribution, Heart / Biodistribution, Kidneys / Biodistribution, Liver / Biodistribution, Lungs / Biodistribution, Muscle / Biodistribution, Pancreas / Biodistribution, Small Intestines / Biodistribution, Spleen / Biodistribution, Stomach / Biodistribution, Tumor: PC12 xenograft NSG mice, 1.5MBq i.v.
# Method: as §1, §4
# STC-1 xenografts = assay: Ex vivo biodistribution in NSG mice bearing STC-1 xenografts; conditions: for Biodistribution, Bladder / Biodistribution, Blood / Biodistribution, Bone / Biodistribution, Brain / Biodistribution, Fat / Biodistribution, Heart / Biodistribution, Kidneys / Biodistribution, Liver / Biodistribution, Lungs / Biodistribution, Muscle / Biodistribution, Pancreas / Biodistribution, Small Intestines / Biodistribution, Spleen / Biodistribution, Stomach / Biodistribution, Tumor: STC-1 xenograft NSG mice, 1.5MBq i.v.
# Method: as §1, §4
structure (smiles),measurement,setting,value
"N[C@H](Cc1cc(O)c(O)cc1[18F])C(=O)O [D-[^18F]FDOPA, 3,4-dihydroxy-6-[^18F]fluoro-D-phenylalanine]","tumor uptake, quantitative PET image analysis",COLO-320 xenografts [1]; 30min post i.v. injection,7.20±0.35 %ID/cc
same,"tumor uptake, quantitative PET image analysis",COLO-320 xenografts [1]; 120min post i.v. injection,6.93±0.80 %ID/cc
same,in vitro uptake,STC-1 cells,2.41±0.17%
same,"pancreatic retention, fold lower compared to L-[^18F]FDOPA","COLO-320 xenografts [2]; COLO-320 mice, 120min p.i.",12 fold
same,"Biodistribution, Bladder",COLO-320 xenografts [2]; 30min p.i.,3.81 %ID/g
same,"Biodistribution, Blood",COLO-320 xenografts [2]; 30min p.i.,2.58 %ID/g
same,"Biodistribution, Bone",COLO-320 xenografts [2]; 30min p.i.,3.28 %ID/g
same,"Biodistribution, Brain",COLO-320 xenografts [2]; 30min p.i.,0.19 %ID/g
same,"Biodistribution, Fat",COLO-320 xenografts [2]; 30min p.i.,0.31 %ID/g
same,"Biodistribution, Heart",COLO-320 xenografts [2]; 30min p.i.,1.57 %ID/g
same,"Biodistribution, Kidneys",COLO-320 xenografts [2]; 30min p.i.,7.05 %ID/g
same,"Biodistribution, Liver",COLO-320 xenografts [2]; 30min p.i.,2.65 %ID/g
same,"Biodistribution, Lungs",COLO-320 xenografts [2]; 30min p.i.,3.60 %ID/g
same,"Biodistribution, Muscle",COLO-320 xenografts [2]; 30min p.i.,0.89 %ID/g
same,"Biodistribution, Pancreas",COLO-320 xenografts [2]; 30min p.i.,34.93 %ID/g
same,"Biodistribution, Small Intestines",COLO-320 xenografts [2]; 30min p.i.,3.89 %ID/g
same,"Biodistribution, Spleen",COLO-320 xenografts [2]; 30min p.i.,4.77 %ID/g
same,"Biodistribution, Stomach",COLO-320 xenografts [2]; 30min p.i.,2.48 %ID/g
same,"Biodistribution, Tumor",COLO-320 xenografts [2]; 30min p.i.,3.61 %ID/g
same,"Biodistribution, Bladder",COLO-320 xenografts [2]; 120min p.i.,3.68 %ID/g
same,"Biodistribution, Blood",COLO-320 xenografts [2]; 120min p.i.,0.51 %ID/g
same,"Biodistribution, Bone",COLO-320 xenografts [2]; 120min p.i.,4.10 %ID/g
same,"Biodistribution, Brain",COLO-320 xenografts [2]; 120min p.i.,0.19 %ID/g
same,"Biodistribution, Fat",COLO-320 xenografts [2]; 120min p.i.,0.29 %ID/g
same,"Biodistribution, Heart",COLO-320 xenografts [2]; 120min p.i.,0.80 %ID/g
same,"Biodistribution, Kidneys",COLO-320 xenografts [2]; 120min p.i.,1.44 %ID/g
same,"Biodistribution, Liver",COLO-320 xenografts [2]; 120min p.i.,0.54 %ID/g
same,"Biodistribution, Lungs",COLO-320 xenografts [2]; 120min p.i.,1.52 %ID/g
same,"Biodistribution, Muscle",COLO-320 xenografts [2]; 120min p.i.,1.12 %ID/g
same,"Biodistribution, Pancreas",COLO-320 xenografts [2]; 120min p.i.,3.12 %ID/g
same,"Biodistribution, Small Intestines",COLO-320 xenografts [2]; 120min p.i.,1.46 %ID/g
same,"Biodistribution, Spleen",COLO-320 xenografts [2]; 120min p.i.,1.67 %ID/g
same,"Biodistribution, Stomach",COLO-320 xenografts [2]; 120min p.i.,0.99 %ID/g
same,"Biodistribution, Tumor",COLO-320 xenografts [2]; 120min p.i.,3.72 %ID/g
same,"tumor uptake, quantitative PET image analysis",PC12 xenografts [3]; 30min post i.v. injection,8.87±0.31 %ID/cc
same,"tumor uptake, quantitative PET image analysis",PC12 xenografts [3]; 120min post i.v. injection,3.96±0.34 %ID/cc
same,"pancreatic retention, fold lower compared to L-[^18F]FDOPA","PC12 xenografts [4]; PC12 mice, 120min p.i.",~11 fold
same,"Biodistribution, Bladder",PC12 xenografts [4]; 30min p.i.,3.96 %ID/g
same,"Biodistribution, Blood",PC12 xenografts [4]; 30min p.i.,2.52 %ID/g
same,"Biodistribution, Bone",PC12 xenografts [4]; 30min p.i.,2.71 %ID/g
same,"Biodistribution, Brain",PC12 xenografts [4]; 30min p.i.,0.19 %ID/g
same,"Biodistribution, Fat",PC12 xenografts [4]; 30min p.i.,0.28 %ID/g
same,"Biodistribution, Heart",PC12 xenografts [4]; 30min p.i.,1.28 %ID/g
same,"Biodistribution, Kidneys",PC12 xenografts [4]; 30min p.i.,5.30 %ID/g
same,"Biodistribution, Liver",PC12 xenografts [4]; 30min p.i.,3.05 %ID/g
same,"Biodistribution, Lungs",PC12 xenografts [4]; 30min p.i.,3.53 %ID/g
same,"Biodistribution, Muscle",PC12 xenografts [4]; 30min p.i.,0.79 %ID/g
same,"Biodistribution, Pancreas",PC12 xenografts [4]; 30min p.i.,28.22 %ID/g
same,"Biodistribution, Small Intestines",PC12 xenografts [4]; 30min p.i.,3.76 %ID/g
same,"Biodistribution, Spleen",PC12 xenografts [4]; 30min p.i.,3.99 %ID/g
same,"Biodistribution, Stomach",PC12 xenografts [4]; 30min p.i.,2.52 %ID/g
same,"Biodistribution, Tumor",PC12 xenografts [4]; 30min p.i.,2.96 %ID/g
same,"Biodistribution, Bladder",PC12 xenografts [4]; 120min p.i.,5.93 %ID/g
same,"Biodistribution, Blood",PC12 xenografts [4]; 120min p.i.,0.48 %ID/g
same,"Biodistribution, Bone",PC12 xenografts [4]; 120min p.i.,4.84 %ID/g
same,"Biodistribution, Brain",PC12 xenografts [4]; 120min p.i.,0.23 %ID/g
same,"Biodistribution, Fat",PC12 xenografts [4]; 120min p.i.,0.34 %ID/g
same,"Biodistribution, Heart",PC12 xenografts [4]; 120min p.i.,0.84 %ID/g
same,"Biodistribution, Kidneys",PC12 xenografts [4]; 120min p.i.,1.23 %ID/g
same,"Biodistribution, Liver",PC12 xenografts [4]; 120min p.i.,0.73 %ID/g
same,"Biodistribution, Lungs",PC12 xenografts [4]; 120min p.i.,2.04 %ID/g
same,"Biodistribution, Muscle",PC12 xenografts [4]; 120min p.i.,1.02 %ID/g
same,"Biodistribution, Pancreas",PC12 xenografts [4]; 120min p.i.,3.42 %ID/g
same,"Biodistribution, Small Intestines",PC12 xenografts [4]; 120min p.i.,1.90 %ID/g
same,"Biodistribution, Spleen",PC12 xenografts [4]; 120min p.i.,1.86 %ID/g
same,"Biodistribution, Stomach",PC12 xenografts [4]; 120min p.i.,1.36 %ID/g
same,"Biodistribution, Tumor",PC12 xenografts [4]; 120min p.i.,1.44 %ID/g
same,"pancreatic retention, fold lower compared to L-[^18F]FDOPA","STC-1 xenografts; STC-1 mice, 120min p.i.",approximately 2 fold
same,"Biodistribution, Bladder",STC-1 xenografts; 30min p.i.,20.49 %ID/g
same,"Biodistribution, Blood",STC-1 xenografts; 30min p.i.,4.31 %ID/g
same,"Biodistribution, Bone",STC-1 xenografts; 30min p.i.,3.94 %ID/g
same,"Biodistribution, Brain",STC-1 xenografts; 30min p.i.,0.55 %ID/g
same,"Biodistribution, Fat",STC-1 xenografts; 30min p.i.,2.27 %ID/g
same,"Biodistribution, Heart",STC-1 xenografts; 30min p.i.,2.52 %ID/g
same,"Biodistribution, Kidneys",STC-1 xenografts; 30min p.i.,12.32 %ID/g
same,"Biodistribution, Liver",STC-1 xenografts; 30min p.i.,3.85 %ID/g
same,"Biodistribution, Lungs",STC-1 xenografts; 30min p.i.,6.63 %ID/g
same,"Biodistribution, Muscle",STC-1 xenografts; 30min p.i.,1.62 %ID/g
same,"Biodistribution, Pancreas",STC-1 xenografts; 30min p.i.,61.64 %ID/g
same,"Biodistribution, Small Intestines",STC-1 xenografts; 30min p.i.,10.28 %ID/g
same,"Biodistribution, Spleen",STC-1 xenografts; 30min p.i.,17.41 %ID/g
same,"Biodistribution, Stomach",STC-1 xenografts; 30min p.i.,9.37 %ID/g
same,"Biodistribution, Tumor",STC-1 xenografts; 30min p.i.,6.92 %ID/g
same,"Biodistribution, Bladder",STC-1 xenografts; 120min p.i.,7.51 %ID/g
same,"Biodistribution, Blood",STC-1 xenografts; 120min p.i.,1.49 %ID/g
same,"Biodistribution, Bone",STC-1 xenografts; 120min p.i.,5.28 %ID/g
same,"Biodistribution, Brain",STC-1 xenografts; 120min p.i.,1.30 %ID/g
same,"Biodistribution, Fat",STC-1 xenografts; 120min p.i.,1.14 %ID/g
same,"Biodistribution, Heart",STC-1 xenografts; 120min p.i.,1.58 %ID/g
same,"Biodistribution, Kidneys",STC-1 xenografts; 120min p.i.,2.30 %ID/g
same,"Biodistribution, Liver",STC-1 xenografts; 120min p.i.,1.60 %ID/g
same,"Biodistribution, Lungs",STC-1 xenografts; 120min p.i.,2.34 %ID/g
same,"Biodistribution, Muscle",STC-1 xenografts; 120min p.i.,2.66 %ID/g
same,"Biodistribution, Pancreas",STC-1 xenografts; 120min p.i.,9.75 %ID/g
same,"Biodistribution, Small Intestines",STC-1 xenografts; 120min p.i.,3.80 %ID/g
same,"Biodistribution, Spleen",STC-1 xenografts; 120min p.i.,0.61 %ID/g
same,"Biodistribution, Stomach",STC-1 xenografts; 120min p.i.,4.84 %ID/g
same,"Biodistribution, Tumor",STC-1 xenografts; 120min p.i.,3.15 %ID/g
